From paper PMC6457190, “Tridecaptin-inspired antimicrobial peptides with activity against multidrug-resistant Gram-negative bacteria” (MedChemComm, 2019)
Where a SMILES comes first, the peptide text is derived from it. [ ]: non-standard residue; d: D form. The star is where a group is joined. dOrn = NCCC[C@@H](N)C(=O)O; Octanoyl = CCCCCCCC(=O)*; Orn = NCCC[C@H](N)C(=O)O

Key:
A. baumannii = format: cell-based, Acinetobacter baumannii; settings: 18 h
Procedure: (§1) IV. Antimicrobial testing
(§2) All minimum inhibitory concentrations (MICs) were determined according to Clinical and Standards Laboratory Institute (CLSI) guidelines. Briefly, peptides were dissolved in Muller-Hinton Broth (MHB) and serial dilutions made across a 96 well plate. Each well was inoculated with a suspension of the required bacterial strain to reach a final inoculum of 5 x 10^5 colony forming units per mL. The MIC was taken as the lowest concentration with no visible growth after 18 hours.
(§3) V. Additional information on multidrug resistant strains
(§4) Organism Resistant Susceptible
Acinetobacter baumannii Cefotaxime Imipenem
Isolated from sewage contaminated Tetracycline Colistin water (Tripoli, Lebanon). Ofloxacin Tobramycin
(§5) Acinetobacter baumannii ACM 11 Ceftazimide
(§6) Acinetobacter baumannii ACM 29 Ceftazimide
(§7) Isolated from peritoneum of 3-year- Imipenem

Equine erythrocytes = format: cell-based, horse; settings: red cells of equine, 100 μg mL^–1
Procedure: Having assessed the antimicrobial activity of peptides 1–8 we next proceeded to assess their haemolytic activities (Table 2). Haemolytic activity was tested at 100 μg mL^–1, as the concentration required for haemolysis should be higher than antimicrobial MICs. Equine erythrocytes were exposed to peptides 1–8 and incubated for 30 min at 37 °C (Table 2). […] The low haemolytic activity observed for Oct-TriA2 (2,8-D-Lys, 7-Lys) (8) is consistent with its poor antimicrobial activity. […]
VI. Haemolytic activity assays
A 96-well plate was first prepared to contain phosphate-buffered saline (PBS) solutions (100 μL) of tridecaptin analogues 1 – 8 (200 μg/mL) (experiments run in triplicate). 0.1 % Triton X-100 (100 μL) was used as a positive control, while PBS (100 μL) was used as a blank. After the plate had been prepared, defibrinated horse blood (0.5 mL, VWR International) was diluted with phosphate-buffered saline (9.5 mL) and gently shaken. The resulting mixture was centrifuged (5600 rpm, 5 min) using a Thermo Scientific Heraeus Labofuge 200 centrifuge and the supernatant carefully removed. This process was repeated three more times to remove any free hemoglobin. The resulting erythrocyte pellet was gently resuspended in 9.5 mL of PBS. Aliquots of the resulting mixture (100 μL) were added to the appropriate wells on the 96-well plate using a multichannel pipette and the plate incubated at 37 °C for 30 min. The samples were gently mixed by pipetting, and 20 μL of each was added to 200 μL of PBS. Once again, the samples were gently mixed. The diluted samples were then centrifuged (7000 rpm, 5 min) using a SciSpin MINI Microfuge. Supernatant (150 μL) from each sample was added to a new 96-well plate. The absorbance of each sample was individually measured at 415 nm using a Denovix DS-11 FX+ Spectrophotometer. Percent hemolysis of the peptides was calculated relative to Triton X- 100, while the PBS negative control was used as a blank.

K. pneumoniae IMP 204 = format: cell-based, Klebsiella pneumoniae; settings: IMP 204, 18 h
Procedure: as §1, §2

K. pneumoniae IMP 177 = format: cell-based, Klebsiella pneumoniae; settings: IMP 177, 18 h
Procedure: as §1, §2

K. pneumoniae IMP 170 = format: cell-based, Klebsiella pneumoniae; settings: IMP 170, 18 h
Procedure: as §1, §2

K. pneumoniae = format: cell-based, Klebsiella pneumoniae; settings: 18 h
Procedure: as §1, §2

K. pneumoniae IMP 216 = format: cell-based, Klebsiella pneumoniae; settings: IMP 216, 18 h
Procedure: as §1, §2

K. pneumoniae IMP 485 = format: cell-based, Klebsiella pneumoniae; settings: IMP 485, 18 h
Procedure: as §1, §2

P. pseudoalcaligenes = format: cell-based, Pseudomonas pseudoalcaligenes; settings: 18 h
Procedure: as §1, §2

E. cloacae = format: cell-based, Enterobacter cloacae; settings: 18 h
Procedure: as §1, §2

A. baumannii ACM 29 = format: cell-based, Acinetobacter baumannii; settings: ACM 29, 18 h
Procedure: as §1, §2
V. Additional information on multidrug resistant strains […]
Organism Resistant Susceptible […]
as §6, §7

[1] = system: K. pneumoniae and E. cloacae strains; format: cell-based, Klebsiella pneumoniae, Enterobacter cloacae; settings: 18 h
Procedure: The first amino acid substitution we explored was replacement of D-allo-Ile12 with D-Val, which occurs in natural TriA2 variants. Fmoc-D-Val is ∼30 times less expensive than Fmoc-D-allo-Ile (according to Fluorochem pricing). […] The minimum inhibitory concentrations (MICs) of Oct-TriA1 against K. pneumoniae and E. cloacae strains were typically 6.25 μg mL^–1 but […] against carbapenemase-producing A. baumannii strains (25 μg mL^–1).
(§8) MilliQ water and solvent B = 0.1 % TFA in ACN. A gradient method was employed, starting from 20 % B and 80 % A for 2 min, ramping up to 95 % B over 18 min, ramping down to 20 % B over 0.1 min before staying at 20 % B for 3.9 min. High resolution mass spectrometry (HRMS) spectra of all peptides were recorded by Analytical Services and Environmental Projects (ASEP) at Queen’s University Belfast on a Waters LCT Premier ToF mass spectrometer using the electrospray ionisation (ESI) technique.
as §1
as §2, with “The MIC was taken as the lowest concentration with no visible growth after 18 hours.” left out

A. baumannii ACM 11 = format: cell-based, Acinetobacter baumannii; settings: ACM 11, 18 h
Procedure: as §1, §2, §3, §4, §5

K. pneumoniae strains = assay: MIC; format: cell-based, Klebsiella pneumoniae; settings: against the K. pneumoniae strains
Excerpt: (§9) We next proceeded to replace the D-Dab and L-Dab residues, found at positions 2 and 8, and 7 respectively. […] It was previously shown that D-Dab8 is essential for antimicrobial activity,[18] and an experimentally derived model of Oct-TriA1 bound to its cellular receptor, the peptidoglycan intermediate lipid II, supports this observation.[12] Therefore we first prepared peptides in which only the amino acids at positions 2 and 7 were substituted with Lys or Orn (D/L configuration retained). […] Finally, the Lys/Orn substitutions at the 2, 7 and 8 positions were also incorporated into TriA2 analogues, yielding Oct-TriA2 (2,8-D-Orn, 7-Orn) (7) and Oct-TriA2 (2,8-D-Lys, 7-Lys) (8).
as §8, §1
(§10) All minimum inhibitory concentrations (MICs) were determined according to Clinical and Standards Laboratory Institute (CLSI) guidelines. […]

A. baumannii strains = assay: MIC; format: cell-based, Acinetobacter baumannii; settings: against the A. baumannii strains
Excerpt: as §9, §8, §1, §10

Structure (SMILES)	Peptide MIC (A. baumannii)	% haemolysis (Equine erythrocytes)	Peptide MIC (K. pneumoniae IMP 204)	Peptide MIC (K. pneumoniae IMP 177)	Peptide MIC (K. pneumoniae IMP 170)	Peptide MIC (K. pneumoniae)	Peptide MIC (K. pneumoniae IMP 216)	Peptide MIC (K. pneumoniae IMP 485)	Peptide MIC (P. pseudoalcaligenes)	Peptide MIC (E. cloacae)	Peptide MIC (A. baumannii ACM 29)	minimum inhibitory concentrations (MICs), typical value [1]	Peptide MIC (A. baumannii ACM 11)	antimicrobial activity relative to Oct-TriA1 (K. pneumoniae strains)	antimicrobial activity relative to Oct-TriA1 (A. baumannii strains)
CCCCCCCC(=O)N[C@@H](C(=O)N[C@H](CCN)C(=O)NCC(=O)N[C@H](CO)C(=O)N[C@H](Cc1c[nH]c2ccccc12)C(=O)N[C@@H](CO)C(=O)N[C@@H](CCN)C(=O)N[C@H](CCN)C(=O)N[C@@H](Cc1ccccc1)C(=O)N[C@@H](CCC(=O)O)C(=O)N[C@H](C(=O)N[C@@H](C(=O)N[C@@H](C)C(=O)O)[C@@H](C)CC)C(C)C)C(C)C [Peptide 1, Oct-TriA1, reference compound]	12.5 μg mL^–1	89.6%	12.5 μg mL^–1	6.25 μg mL^–1	6.25 μg mL^–1	6.25 μg mL^–1	6.25 μg mL^–1	6.25 μg mL^–1	50 μg mL^–1	3.13 μg mL^–1	25 μg mL^–1	~6.25 μg mL^–1	25 μg mL^–1		
CCCCCCCC(=O)N[C@@H](C(=O)N[C@H](CCCN)C(=O)NCC(=O)N[C@H](CO)C(=O)N[C@H](Cc1c[nH]c2ccccc12)C(=O)N[C@@H](CO)C(=O)N[C@@H](CCCN)C(=O)N[C@H](CCCN)C(=O)N[C@@H](Cc1ccccc1)C(=O)N[C@@H](CCC(=O)O)C(=O)N[C@H](C(=O)N[C@@H](C(=O)N[C@@H](C)C(=O)O)C(C)C)C(C)C)C(C)C [Peptide 7, Oct-TriA2 (2,8-D-Orn, 7-Orn)] (Octanoyl-[dV][dOrn]G[dS][dW]S[Orn][dOrn]FEV[dV]A-OH)	25 μg mL^–1	39.8%	12.5 μg mL^–1	12.5 μg mL^–1	25 μg mL^–1	50 μg mL^–1	12.5 μg mL^–1	12.5 μg mL^–1	6.25 μg mL^–1	12.5 μg mL^–1	50 μg mL^–1		25 μg mL^–1	two- to four-fold less active	comparable activity
